The source of these data is paper PMC5662472 (Chemical communications (Cambridge, England), 2017).

The target in data set [1] is Helicobacter pylori α1–3/4-fucosyltransferase (Hp3/4FT) (Helicobacter pylori, UniProt Q9L8S4). The data set is described as follows: HPLC fucosyltransferase assay. To be noted: acceptor; co-substrate GDP-Fuc; labelled compound.
Data set [2] relates to C[C@@H]1O[C@H](OP(=O)(O)OP(=O)(O)OC[C@H]2O[C@@H](n3cnc4c(=O)[nH]c(N)nc43)[C@H](O)[C@@H]2O)[C@@H](O)[C@H](O)[C@@H]1O. The data set is described as follows: purified protein. As to conditions: donor; co-substrate LacNAcβPro2AA (best acceptor).

In the case of Galβ3GlcNAcβPro2AA, the Michaelis constant (Km) (commonly the concentration of substrate that gives half-maximal velocity) in data set [1] was found to be 1320 ± 240 µM. As to “Helicobacter pylori α1–3/4-fucosyltransferase (Hp3/4FT) (Helicobacter pylori)”, in data set [2], the Km came to 860 ± 130 µM; the kcat (as a rule, the number of substrate molecules converted per active site and unit of time at saturation) amounted to 6.02 ± 0.26 s⁻¹; the kcat/Km (as a rule, the second-order rate constant that governs catalysis at low substrate concentration) came to 7010 M⁻¹ s⁻¹.

With LacNAcβPro2AA, the Km in data set [1] was 460 ± 70 µM. For the substance LacβPro2AA, the Km in data set [1] amounted to 990 ± 180 µM.
